Measurements from patent publication US6168809A, “Alkaline-earth metal salt for the treatment of ocular or palpebral pruritus and dysesthesia” (Societe l'Oreal S.A., priority 1995, dated 2001).

How the values were obtained:
release of substance P = release of substance P caused by antidromic stimulation of the sciatic nerve, visualized by Evans blue staining; assay type: in vivo
Description: The test consisted in determining the activity of various compounds on the release of substance P, which is caused by antidromic stimulation of the sciatic nerve. This release is visualized by staining with a stain (Evans blue). The greater the quantity of substance P released, the more intense the colour. In other words, the greater the inhibitory effect of the substance P antagonist on this release, the less intense the colour.

[1] = system: TNF-alpha secretion by human monocytes (line U937); assay: inhibition of secretion of TNF-alpha induced by PMA in human monocytes (line U937); assay type: cell-based; settings: for % inhibition of secretion of TNF-alpha induced by PMA: PMA 10 nM, 48 hours, 37° C., mean of 3 measurements; for inhibition of TNF-alpha: in words
Experimental: This test is performed on human monocytes (line U937) stimulated by a phorbol ester (PMA) according to the method described by Schindler et al. (Correlations and interactions in the production of interleukin-6 (IL-6), IL-1, and Tumor Necrosis Factor (TNF) in human blood mononuclear cells: IL-6 suppresses IL-1 and TNF. Blood 75: 40-47 (1990)).
The phorbol ester (PMA) naturally stimulates the synthesis and/or the secretion of TNF-alpha by human monocytes in culture.
The activity of the molecules is evaluated according to their capacity to reduce or even suppress this TNF-alpha secretion.
The cells (monocytes) are incubated in the presence of PMA at the concentration of 10 nM for 48 hours at 37° C. The quantities of TNF-alpha secreted are quantified by immunoenzymatic assay (ECA) with the aid of commercially available kits.
Each molecule is tested at 3 different concentrations (10^-5, 10^-4 and 10^-3 M) and in each experiment, a reference molecule (dexamethasone) is studied at 7 concentrations as internal standard.
The results are expressed as percentage of inhibition relative to the positive control (without test molecule) after subtracting the background noise. A recapitulative table groups together the mean inhibitory effects obtained with the compounds. (The results are expressed as % inhibition; they are the mean of 3 measurements).

Row | Compound | inhibitory activity on the release of substance P (release of substance P; Table 1, in words, salts at the same concentration) | inhibitory activity on the release of substance P (release of substance P; Table 2, in words, calcium salt at a higher concentration level) | % inhibition of secretion of TNF-alpha induced by PMA ([1]; 10^-3 M) | % inhibition of secretion of TNF-alpha induced by PMA ([1]; 10^-4 M) | % inhibition of secretion of TNF-alpha induced by PMA ([1]; 10^-5 M) | inhibition of TNF-alpha [1] | % inhibition relative to the control (release of substance P; Table 2, 3 μmol)
1 | O=[N+]([O-])[O-].O=[N+]([O-])[O-].[Ca+2] [Ca(NO3)2, calcium nitrate] | no activity at all | no activity at all |  |  |  |  | 
2 | [Ca+2].[Cl-].[Cl-] [CaCL2.7H2 O, calcium chloride] |  |  | 67% | 22% | 19% | inhibitors of TNF-alpha | 
3 | [Cl-].[Cl-].[Mg+2] [Mg Cl2, magnesium chloride] |  |  | 70% | 12% |  | inhibitors of TNF-alpha | 
4 | O=[N+]([O-])[O-].O=[N+]([O-])[O-].[Sr+2] [Sr(NO3)2, strontium nitrate] |  |  | 75% | 28% |  | inhibitors of TNF-alpha | 71%
5 | O.O.O.O.O.O.O.[Cl-].[Cl-].[Sr+2] [SrCl2 7H2O] |  |  | 54% |  | 14% |  | 
6 | [Cl-].[Cl-].[Sr+2] [SrCl2, strontium chloride] |  |  |  |  |  | inhibitors of TNF-alpha | 
